Test results taken from patent publication US8455484B2, “Selected inhibitors of protein tyrosine kinase activity” (MethylGene Inc., priority 2010, dated 2013).

What was measured:
VEGFR2 (KDR) = molecular target: T1, VEGFR2 (KDR) (Homo sapiens, UniProt P35968); experiment: In vitro receptor tyrosine kinase assay (VEGF receptor KDR), DELFIA; format: biochemical; settings: recombinant GST-VEGFR2 catalytic domain, ATP 0.6 uM, enzyme 5 nM; read-out: VEGFR IC50
T1 construct: made in house; host or cells: Sf9 cells (Spodoptera frugiperda), baculovirus
Description: This test measures the ability of compounds to inhibit the enzymatic activity of recombinant human VEGF receptor enzymatic activity.
A 1.6-kb cDNA corresponding to the catalytic domain of VEGFR2 (KDR) (Genbank accession number AF035121 amino acid 806 to 1356) is cloned into the Pst I site of the pDEST20 Gateway vector (Invitrogen) for the production of a GST-tagged version of that enzyme. This constuct is used to generate recombinant baculovirus using the Bac-to-Bac™ system according to the manucfacturer's instructions (Invitrogen).
The GST-VEGFR2806-1356 protein is expressed in Sf9 cells (Spodoptera frugiperda) upon infection with recombinant baculovirus construct. Briefly, Sf9 cells grown in suspension and maintained in serum-free medium (Sf900 II supplemented with gentamycin) at a cell density of about 2×10^6 cells/ml are infected with the above-mentioned viruses at a multiplicity of infection (MOI) of 0.1 during 72 hours at 27° C. with agitation at 120 rpm on a rotary shaker. Infected cells are harvested by centrifugation at 398 g for 15 min. Cell pellets are frozen at −80° C. until purification is performed.
All steps described in cell extraction and purification are performed at 4° C. Frozen Sf9 cell pellets infected with the GST-VEGFR2806-1356 recombinant baculovirus are thawed and gently resuspended in Buffer A (PBS pH 7.3 supplemented with 1 μg/ml pepstatin, 2 μg/ml Aprotinin and leupeptin, 50 μg/ml PMSF, 50 μg/ml TLCK and 10 μM E64 and 0.5 mM DTT) using 3 ml of buffer per gram of cells. Suspension is Dounce homogenized and 1% Triton X-100 is added to the homogenate after which it is centrifuged at 22500 g, 30 min., 4° C. The supernatant (cell extract) is used as starting material for purification of GST-VEGFR2806-1356.
The supernatant is loaded onto a GST-agarose column (Sigma) equilibrated with PBS pH 7.3. Following a four column volume (CV) wash with PBS pH 7.3+1% Triton X-100 and 4 CV wash with buffer B (50 mM Tris pH 8.0, 20% glycerol and 100 mM NaCl), bound proteins are step eluted with 5 CV of buffer B supplemented with 5 mM DTT and 15 mM glutathion. GST-VEGFR2806-1356 enriched fractions from this chromatography step are pooled based on U.V. trace i.e. fractions with high O.D.280. Final GST-VEGFR2806-1356 protein preparations concentrations are about 0.7 mg/ml with purity approximating 70%. Purified GST-VEGFR2806-1356 protein stocks are aliquoted and frozen at −80° C. prior to use in enzymatic assay.
Inhibition of VEGFR/KDR is measured in a DELFIA™ assay (Perkin Elmer). The substrate poly(Glu4, Tyr) is immobilized onto black high-binding polystyrene 96-well plates. The coated plates are washed and stored at 4° C. During the assay, the enzyme is pre-incubated with inhibitor and Mg-ATP on ice in polypropylene 96-well plates for 4 minutes, and then transferred to the coated plates. The subsequent kinase reaction takes place at 30° C. for 10-30 minutes. ATP concentrations in the assay are 0.6 uM for VEGFR/KDR (2× the Km). Enzyme concentration is 5 nM. After incubation, the kinase reactions are quenched with EDTA and the plates are washed. Phosphorylated product is detected by incubation with Europium-labeled anti-phosphotyrosine MoAb. After washing the plates, bound MoAb is detected by time-resolved fluorescence in a Gemini SpectraMax reader (Molecular Devices). Compounds are evaluated over a range of concentrations, and IC50 values (concentration of compounds giving 50% inhibition of enzymatic activity) are determined.

CNV progression = experiment: In vivo choroidal neovascularization (CNV) model; set-up: species or system Brown-Norway rats; settings: injection into right eye on Day 3, CNV area on Day 10, vs vehicle-treated group
Description: This test measures the capacity of compounds to inhibit CNV progression. CNV is the main cause of severe vision loss in patients suffering from age-related macular degeneration (AMD).
Male Brown-Norway rats (Japan Clea Co., Ltd.) were used in these studies.
Rats were anesthetized by intraperitoneal injection of pentobarbital, and the right pupil was dilated with 0.5% tropicamide and 0.5% phenylephrine hydrochloride. The right eye received 6 laser burns between retinal vessels using a slit lamp delivery system of Green laser Photocoagulator (Nidex Inc., Japan), and microscope slide glass with Heaton™ (AMO Inc) used as a contact lens. The laser power was 100 or 200 mW for 0.1 second and spot diameter was 100 μm. At the time of laser burn, bubble production was observed, which is an indication of rupture of Bruch's membrane which is important for CNV generation.
Rats were divided into the groups based on their body weight using SAS software (SAS institute Japan, R8.1) after laser irradiation (Day 0). After animals were anesthetized, and the right pupil dilated (as above mentioned), the right eye of the animal received the compound or vehicle by an injection (10 μL/eye) at doses of 10 or 3 nmol/eye on Day 3. The compounds were dissolved or suspended in CBS, PBS, or other adequate vehicles before injection.
On Day 10, the animals were anesthetized with ether, and high molecular weight fluorescein isothiocyanate (FITC)-dextran (SIGMA, 2×10^6 MW) was injected via a tail vein (20 mg/rat). About 30 min after FITC-dextran injection, animals were euthanized by ether or carbon dioxide, and the eyes were removed and fixed with 10% formaline neutral buffer solution. After over 1 hour of fixation, RPE-choroid-sclera flat mounts were obtained by removing cornea, lens and retina from the eyeballs. The flat mounts were mounted in 50% glycerol on a microscope slide, and the portion burned by laser was photographed using a fluorescence microscope (Nikon Corporation, excitation filter:465-495 nm, absorption filter:515-555 nm). The CNV area was obtained by measurement of hyper-fluorescence area observed on the photograph using Scion image.
The average CNV area of 6 burns was used as an individual value of CNV area, and the average CNV area of compound treated group was compared with that of the vehicle-treated group.

[1] = tested on: VEGF-induced retinal vascular permeability; experiment: VEGF-induced retinal vascular permeability in rabbits; format: in vivo, Dutch rabbits; settings: intravitreal injection, human VEGF165 500 ng, 30 min after fluorescein injection, vs vehicle-treated group
Method: This test measured the capacity of compounds to inhibit VEGF-induced retinal vascular permeability. Vascular permeability is the cause of severe vision loss in patients suffering from age-related macular degeneration (AMD). Female Dutch rabbits (˜2 kg; Kitayama LABES CO., LTD, Nagano, Japan) were anesthetized with pentobarbital and topically with 0.4% oxybuprocaine hydrochloride. Test articles or vehicle were injected into vitreous cavity after the dilation of the pupils with 0.5% tropicamide eye drop. Recombinant human VEGF165 (500 ng; Sigma-Aldrich Co., St Louis, Mo.) was injected intravitreously 48 hr prior to the measurement of vitreous fluorescein concentration. Rabbits were anesthetized with pentobarbital and sequentially injected sodium fluorescein (2 mg/kg) via the ear vein. Pupils were dilated with 0.5% tropicamide eye drop, and ocular fluorescein levels were measured using the FM-2 Fluorotron Master (Ocumetrics, Mountain View, Calif.) 30 min after fluorescein injection. The fluorescein concentrations in vitreous were obtained at data points that are 0.25 mm apart from posterior-end along an optical axis. Vitreous fluorescence concentration was considered fluorescein leakage from retinal vasculature. The average fluorescence peaks of the test article treated groups were compared with that of the vehicle-treated group.

T1 sequence (P35968 806-1356): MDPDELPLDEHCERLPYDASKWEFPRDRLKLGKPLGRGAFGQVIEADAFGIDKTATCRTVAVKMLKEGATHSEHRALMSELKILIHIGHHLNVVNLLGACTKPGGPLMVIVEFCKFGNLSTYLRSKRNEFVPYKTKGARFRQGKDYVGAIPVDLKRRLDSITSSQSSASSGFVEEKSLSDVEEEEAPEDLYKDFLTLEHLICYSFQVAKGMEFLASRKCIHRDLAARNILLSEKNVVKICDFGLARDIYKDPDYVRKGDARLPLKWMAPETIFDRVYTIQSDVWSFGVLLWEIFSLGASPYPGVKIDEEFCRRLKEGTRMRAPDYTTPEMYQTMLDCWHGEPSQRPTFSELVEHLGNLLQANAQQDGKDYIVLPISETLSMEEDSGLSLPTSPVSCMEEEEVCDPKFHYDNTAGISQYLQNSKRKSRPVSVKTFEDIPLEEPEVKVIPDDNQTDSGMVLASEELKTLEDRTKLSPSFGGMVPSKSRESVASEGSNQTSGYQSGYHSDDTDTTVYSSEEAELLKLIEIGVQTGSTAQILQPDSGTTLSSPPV

| Molecule | IC50 (VEGFR2 (KDR)) [nM] | Inhibition of CNV progression (CNV progression; 3 nmol/eye) | Inhibition of CNV progression (CNV progression; 10 nmol/eye) | inhibition of the leakage of fluorescein (vitreous fluorescein concentration) [1] |
| --- | --- | --- | --- | --- |
| CS(=O)(=O)CCNCc1ccc(-c2cc3nccc(Oc4ccc(NC(=O)NC5CC5)cc4F)c3s2)nc1 [Compound 100, 1-cyclopropyl-3-(3-fluoro-4-(2-(5-((2-(methylsulfonyl)ethylamino)methyl)pyridin-2-yl)thieno[3,2-b]pyridin-7-yloxy)phenyl)urea] | < 50 | – | – | – |
| O=C(Nc1ccc(Oc2ccnc3cc(-c4ccc(CN5CCN(C(=O)CO)CC5)cn4)sc23)c(F)c1)NC1CC1 [Compound 74, 1-cyclopropyl-3-(3-fluoro-4-(2-(5-((4-(2-hydroxyacetyl)piperazin-1-yl)methyl)pyridin-2-yl)thieno[3,2-b]pyridin-7-yloxy)phenyl)urea] | < 50 | A (greater than or equal to 60% inhibition) | A (greater than or equal to 60% inhibition) | significant inhibition |
| CN(CCO)CCn1cc(-c2cc3nccc(Oc4ccc(NC(=O)NC5CC5)cc4F)c3s2)cn1 [Compound 151, 1-cyclopropyl-3-(3-fluoro-4-(2-(1-(2-((2-hydroxyethyl)(methyl)amino)ethyl)-1H-pyrazol-4-yl)thieno[3,2-b]pyridin-7-yloxy)phenyl)urea] | < 50 | – | – | – |
| CC(C)[C@H](N)C(=O)OCC(=O)N1CCN(Cc2ccc(-c3cc4nccc(Oc5ccc(NC(=O)NC6CC6)cc5F)c4s3)nc2)CC1 [Compound 80, (S)-2-(4-((6-(7-(4-(3-cyclopropylureido)-2-fluorophenoxy)thieno[3,2-b]pyridin-2-yl)pyridin-3-yl)methyl)piperazin-1-yl)-2-oxoethyl 2-amino-3-methylbutanoate] | < 50 | – | – | – |
| COCCN(Cc1cnc(-c2cc3nccc(Oc4ccc(NC(=O)NC5CC5)cc4F)c3s2)n1C)C(=O)CO [Compound 209, N-((2-(7-(4-(3-cyclopropylureido)-2-fluorophenoxy)thieno[3,2-b]pyridin-2-yl)-1-methyl-1H-imidazol-5-yl)methyl)-2-hydroxy-N-(2-methoxyethyl)acetamide] | < 50 | – | – | – |
| 1-((2-(7-(4-Isopropylaminocarbonylamino-2-fluorophenoxy)thieno[3,2-b]pyrid methyl-1H-imidazol-5-yl)methyl)-3-isopropyl-1-(2-methoxyethyl)urea [Compound 192] | 50 to 100 | B (≧40% to <60% inhibition) | – | – |
| COCCN(C=O)Cc1ccc(-c2cc3nccc(Oc4ccc(NC(=O)NC5CC5)cc4F)c3s2)nc1 [Compound 6, N-((6-(7-(4-(3-cyclopropylureido)-2-fluorophenoxy)thieno[3,2-b]pyridin-2-yl)pyridin-3-yl)methyl)-N-(2-methoxyethyl)formamide] | < 50 | B (≧40% to <60% inhibition) | A (greater than or equal to 60% inhibition) | – |
| CCNC(=O)N(CCOC)Cc1ccc(-c2cc3nccc(Oc4ccc(NC(=O)NC5CC5)cc4F)c3s2)nc1 [Compound 2, N-[3-((6-(7-(4-(3-cyclopropylureido)-2-fluorophenoxy)thieno[3,2-b]pyridin-2-yl)pyridin-3-yl)methyl)]-N-(1-ethyl)-N-[3-(2-methoxyethyl)]urea] | < 50 | B (≧40% to <60% inhibition) | A (greater than or equal to 60% inhibition) | – |

Further lines, with some results ahead:

| IC50 (VEGFR2 (KDR)) [nM] | Molecule | Inhibition of CNV progression (CNV progression; 3 nmol/eye) | Inhibition of CNV progression (CNV progression; 10 nmol/eye) | inhibition of the leakage of fluorescein (vitreous fluorescein concentration) [1] |
| --- | --- | --- | --- | --- |
| < 50 | CN1CCN(C2CCN(C(=O)c3ccc(-c4cc5nccc(Oc6ccc(NC(=O)NC7CC7)cc6F)c5s4)nc3)CC2)CC1 [Compound 234, 1-Cyclopropyl-3-(3-fluoro-4-(2-(5-(4-(4-methylpiperazin-1-yl)piperidine-1-carbonyl)pyridin-2-yl)thieno[3,2-b]pyridin-7-yloxy)phenyl)urea] | B (≧40% to <60% inhibition) | – | – |
| < 50 | COCCN(Cc1ccc(-c2cc3nccc(Oc4ccc(NC(=O)NC5CC5)c(F)c4F)c3s2)nc1)C(C)=O [Compound 26, N-((6-(7-(4-(3-cyclopropylureido)-2,3-difluorophenoxy)thieno[3,2-b]pyridin-2-yl)-pyridin-3-yl)methyl)-N-(2-methoxyethyl)acetamide] | B (≧40% to <60% inhibition) | A (greater than or equal to 60% inhibition) | significant inhibition |
| < 50 | O=C(Nc1ccc(Oc2ccnc3cc(-c4cn(CCN5CCOCC5)cn4)sc23)c(F)c1)NC1CC1 [Compound 265] | – | – | – |
